The source of these data is ChEMBL document CHEMBL3301562, “MMV Box screening against Plasmodium falciparum protein kinases and aminoacyl tRNA synthetases”.

Bounds are passed on as bounds.

Common to all, as to format: functional
Experiment [1] addresses Lysine--tRNA ligase (Plasmodium falciparum (isolate 3D7), UniProt Q8IDJ8). As to the kind of experiment: MMV: KRS recombinant Plasmodium falciparum Lysyl-tRNA-synthetase, assay with yeast tRNA, ATP, and lysine and 3 uM MMV malaria box compound, assay read out with kinase glo as % inhibition. For orientation: In Kinase-Glo more light means more ATP remaining.
Experiment [2] concerns the target T1, Mitogen-activated protein kinase (Plasmodium falciparum, UniProt Q25917).
T1 sequence (Q25917 whole entry): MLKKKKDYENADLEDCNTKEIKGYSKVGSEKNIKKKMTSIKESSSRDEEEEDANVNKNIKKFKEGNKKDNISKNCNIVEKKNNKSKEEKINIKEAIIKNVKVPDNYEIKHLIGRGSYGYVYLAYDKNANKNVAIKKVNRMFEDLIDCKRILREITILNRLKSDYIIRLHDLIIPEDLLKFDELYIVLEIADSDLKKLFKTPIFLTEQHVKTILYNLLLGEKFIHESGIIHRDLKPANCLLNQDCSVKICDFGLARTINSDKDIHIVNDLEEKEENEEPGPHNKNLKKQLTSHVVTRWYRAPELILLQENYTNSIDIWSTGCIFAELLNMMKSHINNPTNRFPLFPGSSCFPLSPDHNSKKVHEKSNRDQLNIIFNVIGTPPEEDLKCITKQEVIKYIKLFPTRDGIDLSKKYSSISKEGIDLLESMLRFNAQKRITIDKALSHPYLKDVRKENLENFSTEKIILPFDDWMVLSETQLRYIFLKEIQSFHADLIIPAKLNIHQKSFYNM
Briefly: Final concentrations were 1 uM ATP, 0.5 mM DTT, 1 mM MgCl2, 0.5 mg/mL BSA, and 10 ug/ml MAP2 in a buffer of 50 mM HEPES (pH 7.0). 0.5 mg/mL histone III-S served as the substrate (13); 100 uM AMP-PNP, an ATP analog, was used as a control inhibitor. Incubation time was 4 hours.

In experiment [3] the target is T2, Putative uncharacterized protein pk7 (Plasmodium falciparum, UniProt O96214).
T2 sequence (O96214 whole entry): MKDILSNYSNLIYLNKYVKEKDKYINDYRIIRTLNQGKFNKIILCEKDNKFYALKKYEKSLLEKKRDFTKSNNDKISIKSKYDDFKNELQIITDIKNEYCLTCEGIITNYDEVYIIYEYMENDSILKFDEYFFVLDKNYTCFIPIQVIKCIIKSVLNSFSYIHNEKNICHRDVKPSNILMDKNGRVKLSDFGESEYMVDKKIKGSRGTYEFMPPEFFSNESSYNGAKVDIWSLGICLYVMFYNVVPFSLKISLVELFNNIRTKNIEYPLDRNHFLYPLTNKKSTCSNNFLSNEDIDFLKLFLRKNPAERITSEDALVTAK
As to the kind of experiment: Final concentrations were 1 uM ATP, 2 mM DTT, 20 mM MgCl2, 2 mM MnCl2, 0.01% BSA, and 6 ug/ml PK7, in a buffer of 20 mM Tris-HCl (pH 7.5). The enzyme itself was the only substrate present (since autophosphorylation occurs); 100 uM 1NA-PP1 was used as a control inhibitor. Incubation time was 3 hours.

Experiment [4] addresses T3, Proline--tRNA ligase (Plasmodium falciparum (isolate 3D7), UniProt Q8I5R7).
T3 sequence (Q8I5R7 whole entry): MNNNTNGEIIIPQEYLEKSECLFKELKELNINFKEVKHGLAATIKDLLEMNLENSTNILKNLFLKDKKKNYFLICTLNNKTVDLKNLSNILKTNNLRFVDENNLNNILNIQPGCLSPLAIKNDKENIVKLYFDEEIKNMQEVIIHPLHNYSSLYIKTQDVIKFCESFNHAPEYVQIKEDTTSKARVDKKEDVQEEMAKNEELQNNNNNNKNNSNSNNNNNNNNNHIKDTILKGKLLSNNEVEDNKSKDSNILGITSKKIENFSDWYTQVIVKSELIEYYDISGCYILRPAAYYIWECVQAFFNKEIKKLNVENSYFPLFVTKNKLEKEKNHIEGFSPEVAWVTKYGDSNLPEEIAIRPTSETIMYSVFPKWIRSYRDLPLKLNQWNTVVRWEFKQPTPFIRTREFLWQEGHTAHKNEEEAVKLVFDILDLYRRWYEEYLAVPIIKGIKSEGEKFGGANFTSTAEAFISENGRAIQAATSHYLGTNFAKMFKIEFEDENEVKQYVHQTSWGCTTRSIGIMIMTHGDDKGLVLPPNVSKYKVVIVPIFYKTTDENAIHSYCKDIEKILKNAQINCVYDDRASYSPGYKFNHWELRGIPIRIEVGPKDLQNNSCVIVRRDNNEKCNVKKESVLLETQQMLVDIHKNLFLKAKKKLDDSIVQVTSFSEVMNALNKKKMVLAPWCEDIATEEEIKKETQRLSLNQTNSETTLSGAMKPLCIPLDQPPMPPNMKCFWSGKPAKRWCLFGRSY
As to the kind of experiment: MMV: ProRS recombinant Plasmodium falciparum Prolyl-tRNA-synthetase, assay with yeast tRNA, ATP, and proline and 3 uM MMV malaria box compound, assay read out with kinase glo as % inhibition.

Experiment [5] concerns the target T4, Calcium-dependent protein kinase 4 (Plasmodium falciparum (isolate 3D7), UniProt Q8IBS5).
T4 sequence (Q8IBS5 whole entry): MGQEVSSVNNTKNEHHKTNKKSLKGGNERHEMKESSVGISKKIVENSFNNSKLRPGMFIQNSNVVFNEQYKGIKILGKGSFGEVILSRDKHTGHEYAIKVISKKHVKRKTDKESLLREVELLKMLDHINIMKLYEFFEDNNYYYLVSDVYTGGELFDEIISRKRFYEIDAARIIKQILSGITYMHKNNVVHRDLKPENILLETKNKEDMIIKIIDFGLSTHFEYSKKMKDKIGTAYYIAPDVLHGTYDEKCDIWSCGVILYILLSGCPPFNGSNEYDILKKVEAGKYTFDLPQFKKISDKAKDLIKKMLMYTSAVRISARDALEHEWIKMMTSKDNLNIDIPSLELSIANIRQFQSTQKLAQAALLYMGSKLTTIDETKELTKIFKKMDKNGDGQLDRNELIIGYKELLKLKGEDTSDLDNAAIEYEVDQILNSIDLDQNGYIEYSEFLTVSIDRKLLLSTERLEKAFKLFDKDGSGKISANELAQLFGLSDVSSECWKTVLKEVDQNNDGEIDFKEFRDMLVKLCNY
As to the kind of experiment: MMV: CDPK4 Protein kinase inhibition assay using recombinant PfCDPK4, syntide2 peptide substrate, ATP and KinaseGlo to measure % inhibition at 1 uM MMV box compound.

The target of experiment [6] is T5, Cdk-related protein kinase 6 (Plasmodium falciparum, UniProt O77239).
T5 sequence (O77239 whole entry): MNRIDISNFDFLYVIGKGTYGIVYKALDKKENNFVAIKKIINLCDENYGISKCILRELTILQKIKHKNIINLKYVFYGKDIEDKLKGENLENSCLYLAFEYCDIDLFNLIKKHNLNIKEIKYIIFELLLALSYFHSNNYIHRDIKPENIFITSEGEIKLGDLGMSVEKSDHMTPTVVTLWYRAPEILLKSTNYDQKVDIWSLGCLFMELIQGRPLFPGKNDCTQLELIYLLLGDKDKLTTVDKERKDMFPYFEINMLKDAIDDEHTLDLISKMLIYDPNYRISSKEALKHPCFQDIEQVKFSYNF
As to the kind of experiment: Final concentrations were 1.5 uM ATP, 5 mM MnCl2, and 15 ug/ml PK6 in a buffer of 100 mM Tris-HCl (pH 7.5). 50 ug/mL MBP was provided as the substrate; 10 uM staurosporine was used as a control inhibitor. Incubation time was 3 hours and 40 minutes.The catalytic activity of each kinase was considered proportional to ATP consumed, as determined from measurements of residual [ATP] with the luciferase-based reagent Kinase-Glo (Promega) following incubation. Luminescence (proportional to residual [ATP]) was measured on the plate readers FLx800 (BioTek Instruments, Winooski, VT, USA) and MicroBeta2.

The target in experiment [7] is Calcium-dependent protein kinase 1 (Plasmodium falciparum, UniProt P62344). Briefly: MMV: CDPK1 Protein kinase inhibition assay using recombinant PfCDPK1, syntide 2 peptide substrate, ATP and KinaseGlo to measure % inhibition at 1 uM MMV box compound.
Chain of Calcium-dependent protein kinase 1 (P62344 whole entry): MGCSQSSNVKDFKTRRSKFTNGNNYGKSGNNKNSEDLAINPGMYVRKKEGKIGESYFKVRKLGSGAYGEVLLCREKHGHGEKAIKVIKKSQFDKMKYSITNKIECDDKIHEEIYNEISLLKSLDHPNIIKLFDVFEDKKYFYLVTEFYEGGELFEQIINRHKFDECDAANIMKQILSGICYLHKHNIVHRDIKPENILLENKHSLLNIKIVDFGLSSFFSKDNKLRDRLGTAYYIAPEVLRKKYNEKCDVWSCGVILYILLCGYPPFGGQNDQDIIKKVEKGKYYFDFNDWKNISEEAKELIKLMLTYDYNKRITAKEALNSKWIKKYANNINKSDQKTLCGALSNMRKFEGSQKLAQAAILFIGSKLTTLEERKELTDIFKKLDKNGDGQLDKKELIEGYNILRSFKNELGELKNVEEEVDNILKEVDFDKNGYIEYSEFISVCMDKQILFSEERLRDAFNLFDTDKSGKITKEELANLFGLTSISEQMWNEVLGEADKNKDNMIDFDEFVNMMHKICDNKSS

Chain of Lysine--tRNA ligase (Q8IDJ8 whole entry): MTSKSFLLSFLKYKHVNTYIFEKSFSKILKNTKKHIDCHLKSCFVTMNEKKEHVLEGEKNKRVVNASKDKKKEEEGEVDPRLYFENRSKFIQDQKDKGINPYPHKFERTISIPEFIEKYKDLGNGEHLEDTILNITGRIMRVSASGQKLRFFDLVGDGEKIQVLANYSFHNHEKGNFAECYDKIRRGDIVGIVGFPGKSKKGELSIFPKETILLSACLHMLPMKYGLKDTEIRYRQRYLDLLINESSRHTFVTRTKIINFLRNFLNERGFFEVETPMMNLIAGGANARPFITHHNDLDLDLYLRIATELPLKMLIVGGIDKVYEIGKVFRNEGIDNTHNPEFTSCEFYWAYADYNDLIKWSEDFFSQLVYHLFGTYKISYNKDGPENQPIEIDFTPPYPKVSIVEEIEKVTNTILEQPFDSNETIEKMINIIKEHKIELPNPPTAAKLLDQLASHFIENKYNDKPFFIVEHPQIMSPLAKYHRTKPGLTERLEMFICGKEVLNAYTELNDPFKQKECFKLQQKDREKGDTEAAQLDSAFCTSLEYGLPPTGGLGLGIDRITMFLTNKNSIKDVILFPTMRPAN

`COc1ccc2c(c1)C1(Nc3ccccc3-c3nc4ccccc4n31)C(=O)N2` (stereo not given): the IC50 in experiment [1] was over 2500 nM; in experiment [2], over 1000 nM; in experiment [3], over 1000 nM; in experiment [4], over 2500 nM; in experiment [5], over 1000 nM; in experiment [6], over 1000 nM. The IC50 in experiment [7] is over 1000 nM.
Consider `CCOc1c(Cl)cc(CNCC(O)c2ccccc2)cc1OC` (stereo not given), for which the IC50 was over 2500 nM in experiment [1]; over 1000 nM in experiment [2]; over 1000 nM in experiment [3]; over 2500 nM in experiment [4]; over 1000 nM in experiment [5]; over 1000 nM in experiment [6]. Also, the IC50 in experiment [7] was over 1000 nM.
For the compound `O=C(Nc1ccc(Br)cc1)Nc1cccc(Cl)c1`, the IC50 in experiment [1] is over 2500 nM; in experiment [2] it was over 1000 nM; in experiment [3] it was over 1000 nM; in experiment [4] it was over 2500 nM; in experiment [5], over 1000 nM; in experiment [6], over 1000 nM. The IC50 in experiment [7] was over 1000 nM.
Regarding `COc1ccc2nc(C)cc(Nc3ccc(Cl)cc3)c2c1`, the IC50 in experiment [1] was over 2500 nM; in experiment [2] it was over 1000 nM; in experiment [3], over 1000 nM; in experiment [4] it was over 2500 nM; in experiment [5], over 1000 nM; in experiment [6], over 1000 nM. Also, the IC50 in experiment [7] was over 1000 nM.
For `Cc1sc2ncnc(Sc3nc4ccccc4[nH]3)c2c1C`, the IC50 in experiment [1] was over 2500 nM; in experiment [2], over 1000 nM; in experiment [3] it was over 1000 nM; in experiment [4], over 2500 nM; in experiment [5] it was over 1000 nM; in experiment [6] it was over 1000 nM. In addition, the IC50 in experiment [7] is over 1000 nM.
As to `O=C(Nc1ccc(CN2CCOCC2)cc1)c1ccc(-c2cc(Cl)ccc2Cl)o1`, the IC50 in experiment [1] was over 2500 nM; in experiment [2] it was over 1000 nM; in experiment [3] it was over 1000 nM; in experiment [4] it was over 2500 nM; in experiment [5] it was over 1000 nM; in experiment [6] it was over 1000 nM. The 50% inhibitory concentration (IC50) in experiment [7] is over 1000 nM.
With `COCCn1c(C)nc2ccccc2c1=O`, the half-inhibitory concentration (IC50) in experiment [1] is over 2500 nM; in experiment [2] it was over 1000 nM; in experiment [3], over 1000 nM; in experiment [4], over 2500 nM; in experiment [5], over 1000 nM; in experiment [6], over 1000 nM. The IC50 in experiment [7] is over 1000 nM.
Regarding `COc1ccc(-c2nonc2NC(=O)c2cccc(Cl)c2)cc1OC`, the IC50 is over 2500 nM in experiment [1]; over 1000 nM in experiment [2]; over 1000 nM in experiment [3]; over 2500 nM in experiment [4]; over 1000 nM in experiment [5]; over 1000 nM in experiment [6]. Also, in experiment [7], the IC50 is over 1000 nM.
On to `CCOc1cc2c(cc1OCC)C(c1cc(C)c(O)c(C)c1)NCC2` (stereo not given), for which the IC50 in experiment [1] is over 2500 nM; in experiment [2], over 1000 nM; in experiment [3], over 1000 nM; in experiment [4], over 2500 nM; in experiment [5] it was over 1000 nM; in experiment [6] it was over 1000 nM. The IC50 in experiment [7] was over 1000 nM.
In the case of `CC(C)c1ccc(CNCC(O)c2ccccc2)cc1` (stereo not given), the IC50 in experiment [1] was over 2500 nM; in experiment [2], over 1000 nM; in experiment [3] it was over 1000 nM; in experiment [4], over 2500 nM; in experiment [5], over 1000 nM; in experiment [6], over 1000 nM. In addition, the IC50 in experiment [7] is over 1000 nM.
`CN(C)c1ccc(N2C(N)=NC(N)=NC2(C)C)cc1`: the IC50 is over 2500 nM in experiment [1]; over 1000 nM in experiment [2]; over 1000 nM in experiment [3]; over 2500 nM in experiment [4]; over 1000 nM in experiment [5]; over 1000 nM in experiment [6]. Moreover, in experiment [7], the IC50 was over 1000 nM.
Turning to `CCCCc1c(C)nc2c(OC)cccc2c1O`, the IC50 in experiment [1] was over 2500 nM; in experiment [2], over 1000 nM; in experiment [3], over 1000 nM; in experiment [4], over 2500 nM; in experiment [5], over 1000 nM; in experiment [6], over 1000 nM. Further, the IC50 in experiment [7] is over 1000 nM.
On to `CCOC(=O)C1CCN(C(=O)CN2C(=O)c3ccccc3C2c2c[nH]c3ccccc23)CC1` (stereo not given), for which the IC50 was over 2500 nM in experiment [1]; over 1000 nM in experiment [2]; over 1000 nM in experiment [3]; over 2500 nM in experiment [4]; over 1000 nM in experiment [5]; over 1000 nM in experiment [6]. Besides, the IC50 in experiment [7] was over 1000 nM.
For the compound `CCOc1ccc(CCNC(=O)c2cccs2)cc1OCC`, the IC50 in experiment [1] was over 2500 nM; in experiment [2] it was over 1000 nM; in experiment [3], over 1000 nM; in experiment [4] it was over 2500 nM; in experiment [5] it was over 1000 nM; in experiment [6], over 1000 nM. The half-inhibitory concentration (IC50) in experiment [7] was over 1000 nM.
On to `Cc1c(C)n(CC(O)CNC2CCCCC2C)c2ccccc12` (stereo not given), for which the half-maximal inhibitory concentration (IC50) in experiment [1] is over 2500 nM; in experiment [2], over 1000 nM; in experiment [3], over 1000 nM; in experiment [4], over 2500 nM; in experiment [5], over 1000 nM; in experiment [6], over 1000 nM. Also, the IC50 in experiment [7] was over 1000 nM.

In general, IC50 refers to the concentration needed to halve the response being measured.
